# Experiments:
# Test in all cases: relative viability (nuclei count vs DMSO), 5 days (fraction); higher = more cells survive
# Elesclomol = compound: CN(NC(=O)CC(=O)NN(C)C(=S)c1ccccc1)C(=S)c1ccccc1 [Elesclomol]
# Method in brief: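 Cells of lung cancer lines were placed in 1536-well plates and kept overnight at 37 °C. Pinning then delivered five library-drug doses (not always all listed), spaced by √10, onto plates anchored with vehicle, and the cells were left 5 days without changing medium. One step fixed, permeabilised and stained them with Hoechst, and MetaXpress counted nuclei in 4× images. Viability, as a median over plates, is treated-well nuclei divided by vehicle-well nuclei, with acceptance only at control CV below 25% and at least one doubling.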
# Elesclomol + Phenformin = compound: CN(NC(=O)CC(=O)NN(C)C(=S)c1ccccc1)C(=S)c1ccccc1 [Elesclomol] + N=C(N)NC(=N)NCCc1ccccc1 [Phenformin] (partner 250 µM)
# Method in brief: (§1)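 Cells from lung cancer lines were seeded into 1536-well plates and, one day later, dosed by pin tool. Treatments were either a single drug or a fixed dose of an anchor drug with five library-drug doses (not always all listed) in √10 steps. After 5 days, nuclei were stained in a one-step fixation (final 0.05% Triton X-100, 1% formaldehyde, 1 ug/ml Hoechst) and counted on 4× images, and relative viability is the treated-to-vehicle nuclei ratio, as the median of duplicate plates.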
# Elesclomol + Foretinib = compound: CN(NC(=O)CC(=O)NN(C)C(=S)c1ccccc1)C(=S)c1ccccc1 [Elesclomol] + COc1cc2c(Oc3ccc(NC(=O)C4(C(=O)Nc5ccc(F)cc5)CC4)cc3F)ccnc2cc1OCCCN1CCOCC1 [Foretinib] (partner 0.25 µM)
# Method in brief: as §1
# Elesclomol + Dasatinib = compound: CN(NC(=O)CC(=O)NN(C)C(=S)c1ccccc1)C(=S)c1ccccc1 [Elesclomol] + Cc1nc(Nc2ncc(C(=O)Nc3c(C)cccc3Cl)s2)cc(N2CCN(CCO)CC2)n1 [Dasatinib] (partner 0.075 µM)
# Method in brief: as §1
# Elesclomol + Luminespib = compound: CN(NC(=O)CC(=O)NN(C)C(=S)c1ccccc1)C(=S)c1ccccc1 [Elesclomol] + CCNC(=O)c1noc(-c2cc(C(C)C)c(O)cc2O)c1-c1ccc(CN2CCOCC2)cc1 [Luminespib] (partner 0.01 µM)
# Method in brief: as §1
# Elesclomol + Tozasertib = compound: CN(NC(=O)CC(=O)NN(C)C(=S)c1ccccc1)C(=S)c1ccccc1 [Elesclomol] + Cc1cc(Nc2cc(N3CCN(C)CC3)nc(Sc3ccc(NC(=O)C4CC4)cc3)n2)n[nH]1 [Tozasertib] (partner 0.1 µM)
# Method in brief: as §1
# Elesclomol + OSI-027 = compound: CN(NC(=O)CC(=O)NN(C)C(=S)c1ccccc1)C(=S)c1ccccc1 [Elesclomol] + COc1cccc2cc(-c3nc([C@H]4CC[C@H](C(=O)O)CC4)n4ncnc(N)c34)[nH]c12 [OSI-027] (partner 0.5 µM)
# Method in brief: as §1
# Elesclomol + Pictilisib = compound: CN(NC(=O)CC(=O)NN(C)C(=S)c1ccccc1)C(=S)c1ccccc1 [Elesclomol] + CS(=O)(=O)N1CCN(Cc2cc3nc(-c4cccc5[nH]ncc45)nc(N4CCOCC4)c3s2)CC1 [Pictilisib] (partner 1 µM)
# Method in brief: as §1
# Elesclomol + Navitoclax = compound: CN(NC(=O)CC(=O)NN(C)C(=S)c1ccccc1)C(=S)c1ccccc1 [Elesclomol] + CC1(C)CCC(c2ccc(Cl)cc2)=C(CN2CCN(c3ccc(C(=O)NS(=O)(=O)c4ccc(N[C@H](CCN5CCOCC5)CSc5ccccc5)c(S(=O)(=O)C(F)(F)F)c4)cc3)CC2)C1 [Navitoclax] (partner 0.5 µM)
# Method in brief: as §1
# Elesclomol + Olaparib = compound: CN(NC(=O)CC(=O)NN(C)C(=S)c1ccccc1)C(=S)c1ccccc1 [Elesclomol] + O=C(c1cc(Cc2n[nH]c(=O)c3ccccc23)ccc1F)N1CCN(C(=O)C2CC2)CC1 [Olaparib] (partner 8 µM)
# Method in brief: as §1
# Elesclomol + Lapatinib = compound: CN(NC(=O)CC(=O)NN(C)C(=S)c1ccccc1)C(=S)c1ccccc1 [Elesclomol] + CS(=O)(=O)CCNCc1ccc(-c2ccc3ncnc(Nc4ccc(OCc5cccc(F)c5)c(Cl)c4)c3c2)o1 [Lapatinib] (partner 2 µM)
# Method in brief: as §1
# Elesclomol + Crizotinib = compound: CN(NC(=O)CC(=O)NN(C)C(=S)c1ccccc1)C(=S)c1ccccc1 [Elesclomol] + C[C@@H](Oc1cc(-c2cnn(C3CCNCC3)c2)cnc1N)c1c(Cl)ccc(F)c1Cl [Crizotinib] (partner 1 µM)
# Method in brief: as §1
# Elesclomol + Linsitinib = compound: CN(NC(=O)CC(=O)NN(C)C(=S)c1ccccc1)C(=S)c1ccccc1 [Elesclomol] + C[C@]1(O)C[C@@H](c2nc(-c3ccc4ccc(-c5ccccc5)nc4c3)c3c(N)nccn32)C1 [Linsitinib] (partner 1 µM)
# Method in brief: as §1
# Elesclomol + Decitabine = compound: CN(NC(=O)CC(=O)NN(C)C(=S)c1ccccc1)C(=S)c1ccccc1 [Elesclomol] + Nc1ncn([C@H]2C[C@H](O)[C@@H](CO)O2)c(=O)n1 [Decitabine] (partner 2 µM)
# Method in brief: as §1
# Elesclomol + Alpelisib = compound: CN(NC(=O)CC(=O)NN(C)C(=S)c1ccccc1)C(=S)c1ccccc1 [Elesclomol] + Cc1nc(NC(=O)N2CCC[C@H]2C(N)=O)sc1-c1ccnc(C(C)(C)C(F)(F)F)c1 [Alpelisib] (partner 2 µM)
# Method in brief: as §1
# Elesclomol + Bortezomib = compound: CN(NC(=O)CC(=O)NN(C)C(=S)c1ccccc1)C(=S)c1ccccc1 [Elesclomol] + CC(C)C[C@H](NC(=O)[C@H](Cc1ccccc1)NC(=O)c1cnccn1)B(O)O [Bortezomib] (partner 0.002 µM)
# Method in brief: as §1
cell line,measurement,setting,value
NCI-H1623,relative viability,Elesclomol; 0.003162 µM,0.775
same,relative viability,Elesclomol; 0.01 µM,0.462
same,relative viability,Elesclomol; 0.03162 µM,0.37
same,relative viability,Elesclomol; 0.1 µM,0.339
same,relative viability,Elesclomol + Phenformin; first compound 0.003162 µM,0.624
same,relative viability,Elesclomol + Phenformin; first compound 0.01 µM,0.552
same,relative viability,Elesclomol + Phenformin; first compound 0.03162 µM,0.539
same,relative viability,Elesclomol + Phenformin; first compound 0.1 µM,0.443
same,relative viability,Elesclomol + Foretinib; first compound 0.003162 µM,0.868
same,relative viability,Elesclomol + Foretinib; first compound 0.01 µM,0.526
same,relative viability,Elesclomol + Foretinib; first compound 0.03162 µM,0.422
same,relative viability,Elesclomol + Foretinib; first compound 0.1 µM,0.422
same,relative viability,Elesclomol + Dasatinib; first compound 0.003162 µM,0.499
same,relative viability,Elesclomol + Dasatinib; first compound 0.01 µM,0.464
same,relative viability,Elesclomol + Dasatinib; first compound 0.03162 µM,0.312
same,relative viability,Elesclomol + Dasatinib; first compound 0.1 µM,0.254
same,relative viability,Elesclomol + Luminespib; first compound 0.003162 µM,0.235
same,relative viability,Elesclomol + Luminespib; first compound 0.01 µM,0.216
same,relative viability,Elesclomol + Luminespib; first compound 0.03162 µM,0.251
same,relative viability,Elesclomol + Luminespib; first compound 0.1 µM,0.217
same,relative viability,Elesclomol + Tozasertib; first compound 0.003162 µM,0.392
same,relative viability,Elesclomol + Tozasertib; first compound 0.01 µM,0.417
same,relative viability,Elesclomol + Tozasertib; first compound 0.03162 µM,0.35
same,relative viability,Elesclomol + Tozasertib; first compound 0.1 µM,0.303
same,relative viability,Elesclomol + OSI-027; first compound 0.003162 µM,0.386
same,relative viability,Elesclomol + OSI-027; first compound 0.01 µM,0.353
same,relative viability,Elesclomol + OSI-027; first compound 0.03162 µM,0.347
same,relative viability,Elesclomol + OSI-027; first compound 0.1 µM,0.296
A549,relative viability,Elesclomol; 0.003162 µM,0.912
same,relative viability,Elesclomol; 0.01 µM,0.417
same,relative viability,Elesclomol; 0.03162 µM,0.24
same,relative viability,Elesclomol; 0.1 µM,0.0637
same,relative viability,Elesclomol + Pictilisib; first compound 0.003162 µM,0.493
same,relative viability,Elesclomol + Pictilisib; first compound 0.01 µM,0.246
same,relative viability,Elesclomol + Pictilisib; first compound 0.03162 µM,0.1
same,relative viability,Elesclomol + Pictilisib; first compound 0.1 µM,0.0728
same,relative viability,Elesclomol + Navitoclax; first compound 0.003162 µM,0.798
same,relative viability,Elesclomol + Navitoclax; first compound 0.01 µM,0.181
same,relative viability,Elesclomol + Navitoclax; first compound 0.03162 µM,0.0437
same,relative viability,Elesclomol + Navitoclax; first compound 0.1 µM,0.03
same,relative viability,Elesclomol + Phenformin; first compound 0.003162 µM,0.0993
same,relative viability,Elesclomol + Phenformin; first compound 0.01 µM,0.0488
same,relative viability,Elesclomol + Phenformin; first compound 0.03162 µM,0.0406
same,relative viability,Elesclomol + Phenformin; first compound 0.1 µM,0.0078
same,relative viability,Elesclomol + Foretinib; first compound 0.003162 µM,0.886
same,relative viability,Elesclomol + Foretinib; first compound 0.01 µM,0.504
same,relative viability,Elesclomol + Foretinib; first compound 0.03162 µM,0.0597
same,relative viability,Elesclomol + Foretinib; first compound 0.1 µM,0.0242
same,relative viability,Elesclomol + Olaparib; first compound 0.003162 µM,0.289
same,relative viability,Elesclomol + Olaparib; first compound 0.01 µM,0.22
same,relative viability,Elesclomol + Olaparib; first compound 0.03162 µM,0.189
same,relative viability,Elesclomol + Olaparib; first compound 0.1 µM,0.0697
same,relative viability,Elesclomol + Lapatinib; first compound 0.003162 µM,0.74
same,relative viability,Elesclomol + Lapatinib; first compound 0.01 µM,0.174
same,relative viability,Elesclomol + Lapatinib; first compound 0.03162 µM,0.29
same,relative viability,Elesclomol + Lapatinib; first compound 0.1 µM,0.058
same,relative viability,Elesclomol + Crizotinib; first compound 0.003162 µM,0.445
same,relative viability,Elesclomol + Crizotinib; first compound 0.01 µM,0.239
same,relative viability,Elesclomol + Crizotinib; first compound 0.03162 µM,0.0617
same,relative viability,Elesclomol + Crizotinib; first compound 0.1 µM,0.0458
same,relative viability,Elesclomol + Linsitinib; first compound 0.003162 µM,0.627
same,relative viability,Elesclomol + Linsitinib; first compound 0.01 µM,0.501
same,relative viability,Elesclomol + Linsitinib; first compound 0.03162 µM,0.378
same,relative viability,Elesclomol + Linsitinib; first compound 0.1 µM,0.097
same,relative viability,Elesclomol + Decitabine; first compound 0.003162 µM,0.293
same,relative viability,Elesclomol + Decitabine; first compound 0.01 µM,0.22
same,relative viability,Elesclomol + Decitabine; first compound 0.03162 µM,0.261
same,relative viability,Elesclomol + Decitabine; first compound 0.1 µM,0.133
same,relative viability,Elesclomol + Alpelisib; first compound 0.003162 µM,0.731
same,relative viability,Elesclomol + Alpelisib; first compound 0.01 µM,0.229
same,relative viability,Elesclomol + Alpelisib; first compound 0.03162 µM,0.0735
same,relative viability,Elesclomol + Alpelisib; first compound 0.1 µM,0.0217
NCI-H1299,relative viability,Elesclomol; 0.003162 µM,1.03
same,relative viability,Elesclomol; 0.01 µM,0.733
same,relative viability,Elesclomol; 0.03162 µM,0.709
same,relative viability,Elesclomol; 0.1 µM,0.42
same,relative viability,Elesclomol + Bortezomib; first compound 0.003162 µM,1.03
same,relative viability,Elesclomol + Bortezomib; first compound 0.01 µM,0.921
same,relative viability,Elesclomol + Bortezomib; first compound 0.03162 µM,0.834
same,relative viability,Elesclomol + Bortezomib; first compound 0.1 µM,0.622
same,relative viability,Elesclomol + Pictilisib; first compound 0.003162 µM,0.743
same,relative viability,Elesclomol + Pictilisib; first compound 0.01 µM,0.171
same,relative viability,Elesclomol + Pictilisib; first compound 0.03162 µM,0.134
same,relative viability,Elesclomol + Pictilisib; first compound 0.1 µM,0.0529
same,relative viability,Elesclomol + Navitoclax; first compound 0.003162 µM,1.05
same,relative viability,Elesclomol + Navitoclax; first compound 0.01 µM,0.97
same,relative viability,Elesclomol + Navitoclax; first compound 0.03162 µM,0.932
same,relative viability,Elesclomol + Navitoclax; first compound 0.1 µM,0.661
same,relative viability,Elesclomol + Foretinib; first compound 0.003162 µM,1.04
same,relative viability,Elesclomol + Foretinib; first compound 0.01 µM,1.06
same,relative viability,Elesclomol + Foretinib; first compound 0.03162 µM,0.588
same,relative viability,Elesclomol + Foretinib; first compound 0.1 µM,0.333
same,relative viability,Elesclomol + Olaparib; first compound 0.003162 µM,0.991
same,relative viability,Elesclomol + Olaparib; first compound 0.01 µM,0.574
same,relative viability,Elesclomol + Olaparib; first compound 0.03162 µM,0.401
same,relative viability,Elesclomol + Olaparib; first compound 0.1 µM,0.146
same,relative viability,Elesclomol + Lapatinib; first compound 0.003162 µM,0.947
same,relative viability,Elesclomol + Lapatinib; first compound 0.01 µM,0.852
same,relative viability,Elesclomol + Lapatinib; first compound 0.03162 µM,0.698
same,relative viability,Elesclomol + Lapatinib; first compound 0.1 µM,0.547
same,relative viability,Elesclomol + Crizotinib; first compound 0.003162 µM,0.613
same,relative viability,Elesclomol + Crizotinib; first compound 0.01 µM,0.822
same,relative viability,Elesclomol + Crizotinib; first compound 0.03162 µM,0.698
same,relative viability,Elesclomol + Crizotinib; first compound 0.1 µM,0.507
same,relative viability,Elesclomol + Linsitinib; first compound 0.003162 µM,0.994
same,relative viability,Elesclomol + Linsitinib; first compound 0.01 µM,0.677
same,relative viability,Elesclomol + Linsitinib; first compound 0.03162 µM,0.549
same,relative viability,Elesclomol + Linsitinib; first compound 0.1 µM,0.145
same,relative viability,Elesclomol + Alpelisib; first compound 0.003162 µM,1.08
same,relative viability,Elesclomol + Alpelisib; first compound 0.01 µM,1.05
same,relative viability,Elesclomol + Alpelisib; first compound 0.03162 µM,0.918
same,relative viability,Elesclomol + Alpelisib; first compound 0.1 µM,0.636

# Reference: the supplement of paper PMC10307832
